Reference: ChEMBL document CHEMBL4507265 (2021)

Legend:
[1] = test system: Tyrosine-protein kinase ABL1 (Homo sapiens), P00519 [Q252H]; settings: Compound concentration 1000.0 nM
[2] = molecular target: 5'-AMP-activated protein kinase catalytic subunit alpha-1 (Homo sapiens) (UniProt Q13131); settings: Compound concentration 1000.0 nM
[3] = molecular target: Calcium/calmodulin-dependent protein kinase type 1B (Homo sapiens) (UniProt Q6P2M8); settings: Compound concentration 1000.0 nM
[4] = molecular target: Calcium/calmodulin-dependent protein kinase type 1D (Homo sapiens) (UniProt Q8IU85); settings: Compound concentration 1000.0 nM
Calcium/calmodulin-dependent protein kinase type 1D (Homo sapiens), sequence (Q8IU85 whole entry, looked up): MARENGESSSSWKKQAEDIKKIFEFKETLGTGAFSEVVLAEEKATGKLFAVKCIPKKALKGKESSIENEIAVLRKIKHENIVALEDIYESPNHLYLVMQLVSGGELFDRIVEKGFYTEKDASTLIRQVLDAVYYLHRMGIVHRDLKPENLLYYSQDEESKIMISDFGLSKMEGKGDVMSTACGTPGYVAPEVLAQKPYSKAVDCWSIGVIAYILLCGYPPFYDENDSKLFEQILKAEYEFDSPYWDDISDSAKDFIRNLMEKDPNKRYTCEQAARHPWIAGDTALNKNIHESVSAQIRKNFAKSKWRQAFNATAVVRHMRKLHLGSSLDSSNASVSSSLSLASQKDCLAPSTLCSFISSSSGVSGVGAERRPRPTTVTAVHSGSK

[5] = molecular target: Macrophage colony-stimulating factor 1 receptor (Homo sapiens) (UniProt P07333); settings: Compound concentration 1000.0 nM
[6] = molecular target: Receptor tyrosine-protein kinase erbB-3 (Homo sapiens) (UniProt P21860); settings: Compound concentration 1000.0 nM
[7] = molecular target: Insulin receptor-related protein (Homo sapiens) (UniProt P14616); settings: Compound concentration 1000.0 nM
[8] = molecular target: Mitogen-activated protein kinase 9 (Homo sapiens) (UniProt P45984); settings: Compound concentration 1000.0 nM
[9] = molecular target: Serine/threonine-protein kinase LATS1 (Homo sapiens) (UniProt O95835); settings: Compound concentration 1000.0 nM
[10] = molecular target: Dual specificity mitogen-activated protein kinase kinase 3 (Homo sapiens) (UniProt P46734); settings: Compound concentration 1000.0 nM
[11] = molecular target: Dual specificity mitogen-activated protein kinase kinase 4 (Homo sapiens) (UniProt P45985); settings: Compound concentration 1000.0 nM
Dual specificity mitogen-activated protein kinase kinase 4 (Homo sapiens), sequence (P45985 whole entry): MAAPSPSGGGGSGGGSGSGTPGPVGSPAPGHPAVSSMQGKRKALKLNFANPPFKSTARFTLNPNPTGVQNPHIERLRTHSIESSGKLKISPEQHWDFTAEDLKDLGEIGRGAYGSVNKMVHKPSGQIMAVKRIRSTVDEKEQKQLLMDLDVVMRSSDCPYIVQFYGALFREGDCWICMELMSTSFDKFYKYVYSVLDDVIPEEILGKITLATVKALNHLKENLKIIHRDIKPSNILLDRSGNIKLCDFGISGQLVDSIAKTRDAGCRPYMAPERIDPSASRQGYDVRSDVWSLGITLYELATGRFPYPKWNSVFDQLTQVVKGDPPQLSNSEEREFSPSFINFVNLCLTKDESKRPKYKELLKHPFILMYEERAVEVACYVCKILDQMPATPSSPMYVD

[12] = molecular target: Mitogen-activated protein kinase kinase kinase 9 (Homo sapiens) (UniProt P80192); settings: Compound concentration 1000.0 nM
Mitogen-activated protein kinase kinase kinase 9 (Homo sapiens), sequence (P80192 whole entry, looked up): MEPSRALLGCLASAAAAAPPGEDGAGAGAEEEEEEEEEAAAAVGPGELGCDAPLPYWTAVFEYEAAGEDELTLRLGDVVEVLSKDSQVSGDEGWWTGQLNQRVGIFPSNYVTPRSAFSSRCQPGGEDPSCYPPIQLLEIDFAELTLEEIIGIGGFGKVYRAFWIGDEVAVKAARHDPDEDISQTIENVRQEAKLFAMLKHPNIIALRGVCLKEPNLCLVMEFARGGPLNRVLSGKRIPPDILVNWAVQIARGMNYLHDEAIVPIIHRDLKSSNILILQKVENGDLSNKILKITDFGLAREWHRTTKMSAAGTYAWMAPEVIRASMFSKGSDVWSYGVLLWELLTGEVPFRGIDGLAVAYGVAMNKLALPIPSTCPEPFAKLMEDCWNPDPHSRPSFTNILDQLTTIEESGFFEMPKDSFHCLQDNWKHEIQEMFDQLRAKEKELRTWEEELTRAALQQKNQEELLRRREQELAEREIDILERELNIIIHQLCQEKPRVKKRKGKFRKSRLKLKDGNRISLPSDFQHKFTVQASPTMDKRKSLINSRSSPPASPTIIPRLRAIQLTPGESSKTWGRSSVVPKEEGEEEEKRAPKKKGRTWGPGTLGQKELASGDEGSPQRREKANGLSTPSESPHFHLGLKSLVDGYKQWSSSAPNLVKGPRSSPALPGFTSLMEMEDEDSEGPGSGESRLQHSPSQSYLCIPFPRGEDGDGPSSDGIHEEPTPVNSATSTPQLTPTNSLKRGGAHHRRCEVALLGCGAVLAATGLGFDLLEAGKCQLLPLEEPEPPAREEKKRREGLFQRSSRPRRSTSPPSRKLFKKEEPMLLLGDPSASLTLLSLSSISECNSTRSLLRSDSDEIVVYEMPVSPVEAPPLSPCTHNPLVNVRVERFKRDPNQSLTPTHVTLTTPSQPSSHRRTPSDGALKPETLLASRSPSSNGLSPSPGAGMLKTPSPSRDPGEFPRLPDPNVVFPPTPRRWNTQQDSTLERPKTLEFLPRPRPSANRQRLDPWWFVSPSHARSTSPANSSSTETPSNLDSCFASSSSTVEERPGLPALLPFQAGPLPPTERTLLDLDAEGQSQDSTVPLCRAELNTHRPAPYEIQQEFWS

[13] = molecular target: Serine/threonine-protein kinase MRCK alpha (Homo sapiens) (UniProt Q5VT25); settings: Compound concentration 1000.0 nM
[14] = molecular target: Muscle, skeletal receptor tyrosine-protein kinase (Homo sapiens) (UniProt O15146); settings: Compound concentration 1000.0 nM
[15] = molecular target: Myosin-IIIa (Homo sapiens) (UniProt Q8NEV4); settings: Compound concentration 1000.0 nM
[16] = molecular target: Serine/threonine-protein kinase Nek10 (Homo sapiens) (UniProt Q6ZWH5); settings: Compound concentration 1000.0 nM
[17] = molecular target: Serine/threonine-protein kinase Nek11 (Homo sapiens) (UniProt Q8NG66); settings: Compound concentration 1000.0 nM
Serine/threonine-protein kinase Nek11 (Homo sapiens), sequence (Q8NG66 whole entry): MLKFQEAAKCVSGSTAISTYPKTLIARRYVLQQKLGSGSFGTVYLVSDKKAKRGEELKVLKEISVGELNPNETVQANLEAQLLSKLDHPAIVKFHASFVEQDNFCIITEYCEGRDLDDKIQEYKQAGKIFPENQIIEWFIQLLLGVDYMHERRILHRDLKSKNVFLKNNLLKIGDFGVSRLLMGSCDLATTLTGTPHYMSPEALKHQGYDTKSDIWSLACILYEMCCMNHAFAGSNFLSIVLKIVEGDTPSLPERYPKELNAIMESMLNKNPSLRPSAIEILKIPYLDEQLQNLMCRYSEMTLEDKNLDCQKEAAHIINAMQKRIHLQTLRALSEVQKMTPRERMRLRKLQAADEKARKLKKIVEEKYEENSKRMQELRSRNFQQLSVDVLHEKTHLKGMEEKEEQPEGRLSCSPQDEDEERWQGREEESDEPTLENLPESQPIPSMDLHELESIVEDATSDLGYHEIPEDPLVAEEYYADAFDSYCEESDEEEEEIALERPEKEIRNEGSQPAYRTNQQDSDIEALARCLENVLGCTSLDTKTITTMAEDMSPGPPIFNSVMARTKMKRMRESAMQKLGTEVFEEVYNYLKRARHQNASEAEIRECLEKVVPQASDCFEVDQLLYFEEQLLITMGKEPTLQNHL

[18] = molecular target: Serine/threonine-protein kinase NLK (Homo sapiens) (UniProt Q9UBE8); settings: Compound concentration 1000.0 nM
[19] = molecular target: Serine/threonine-protein kinase PAK 2 (Homo sapiens) (UniProt Q13177); settings: Compound concentration 1000.0 nM
[20] = molecular target: Serine/threonine-protein kinase PLK1 (Homo sapiens) (UniProt P53350); settings: Compound concentration 1000.0 nM
Serine/threonine-protein kinase PLK1 (Homo sapiens), sequence (P53350 whole entry): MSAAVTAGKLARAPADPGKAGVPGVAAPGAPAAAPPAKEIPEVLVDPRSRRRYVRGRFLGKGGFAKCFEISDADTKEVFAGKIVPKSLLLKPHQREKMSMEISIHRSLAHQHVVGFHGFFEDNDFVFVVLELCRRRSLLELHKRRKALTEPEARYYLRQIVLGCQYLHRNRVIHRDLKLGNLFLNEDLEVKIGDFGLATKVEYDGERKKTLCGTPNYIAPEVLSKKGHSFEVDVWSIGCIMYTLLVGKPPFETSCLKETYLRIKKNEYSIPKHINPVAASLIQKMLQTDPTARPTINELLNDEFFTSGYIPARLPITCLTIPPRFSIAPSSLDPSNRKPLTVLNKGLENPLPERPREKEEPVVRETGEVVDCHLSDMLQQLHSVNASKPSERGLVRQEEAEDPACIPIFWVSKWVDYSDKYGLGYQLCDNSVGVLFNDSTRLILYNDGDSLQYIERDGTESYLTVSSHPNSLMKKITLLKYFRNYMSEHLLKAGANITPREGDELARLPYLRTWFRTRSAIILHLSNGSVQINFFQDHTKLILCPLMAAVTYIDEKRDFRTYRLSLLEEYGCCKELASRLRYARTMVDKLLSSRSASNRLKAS

[21] = molecular target: Proto-oncogene tyrosine-protein kinase ROS (Homo sapiens) (UniProt P08922); settings: Compound concentration 1000.0 nM
[22] = molecular target: Ribosomal protein S6 kinase alpha-5 (Homo sapiens) (UniProt O75582); settings: Compound concentration 1000.0 nM
Ribosomal protein S6 kinase alpha-5 (Homo sapiens), sequence (O75582 whole entry, looked up): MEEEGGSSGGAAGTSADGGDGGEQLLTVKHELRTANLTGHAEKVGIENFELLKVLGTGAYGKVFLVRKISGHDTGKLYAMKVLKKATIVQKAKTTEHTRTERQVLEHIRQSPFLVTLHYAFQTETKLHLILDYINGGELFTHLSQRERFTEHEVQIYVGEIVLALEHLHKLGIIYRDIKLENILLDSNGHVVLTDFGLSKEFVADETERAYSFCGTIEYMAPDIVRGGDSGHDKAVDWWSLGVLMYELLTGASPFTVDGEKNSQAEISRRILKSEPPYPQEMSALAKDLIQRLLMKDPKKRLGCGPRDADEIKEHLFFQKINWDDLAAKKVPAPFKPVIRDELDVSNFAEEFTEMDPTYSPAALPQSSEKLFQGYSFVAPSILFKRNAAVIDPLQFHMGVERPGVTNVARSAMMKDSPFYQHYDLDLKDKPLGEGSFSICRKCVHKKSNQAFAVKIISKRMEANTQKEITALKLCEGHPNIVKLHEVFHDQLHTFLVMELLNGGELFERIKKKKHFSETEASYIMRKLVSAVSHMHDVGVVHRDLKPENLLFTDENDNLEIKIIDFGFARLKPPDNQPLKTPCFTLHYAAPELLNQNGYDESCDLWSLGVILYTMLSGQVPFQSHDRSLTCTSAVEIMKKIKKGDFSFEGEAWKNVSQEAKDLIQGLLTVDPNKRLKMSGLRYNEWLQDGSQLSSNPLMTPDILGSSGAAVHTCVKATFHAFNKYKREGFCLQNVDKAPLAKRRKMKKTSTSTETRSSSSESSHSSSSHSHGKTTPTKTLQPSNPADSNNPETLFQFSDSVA

[23] = molecular target: Tyrosine-protein kinase Srms (Homo sapiens) (UniProt Q9H3Y6); settings: Compound concentration 1000.0 nM
[24] = molecular target: Serine/threonine-protein kinase 16 (Homo sapiens) (UniProt O75716); settings: Compound concentration 1000.0 nM
[25] = molecular target: Serine/threonine-protein kinase 33 (Homo sapiens) (UniProt Q9BYT3); settings: Compound concentration 1000.0 nM
[26] = molecular target: Serine/threonine-protein kinase 36 (Homo sapiens) (UniProt Q9NRP7); settings: Compound concentration 1000.0 nM
[27] = molecular target: Tyrosine-protein kinase SYK (Homo sapiens) (UniProt P43405); settings: Compound concentration 1000.0 nM
[28] = molecular target: Serine/threonine-protein kinase TAO3 (Homo sapiens) (UniProt Q9H2K8); settings: Compound concentration 1000.0 nM
Serine/threonine-protein kinase TAO3 (Homo sapiens), sequence (Q9H2K8 whole entry): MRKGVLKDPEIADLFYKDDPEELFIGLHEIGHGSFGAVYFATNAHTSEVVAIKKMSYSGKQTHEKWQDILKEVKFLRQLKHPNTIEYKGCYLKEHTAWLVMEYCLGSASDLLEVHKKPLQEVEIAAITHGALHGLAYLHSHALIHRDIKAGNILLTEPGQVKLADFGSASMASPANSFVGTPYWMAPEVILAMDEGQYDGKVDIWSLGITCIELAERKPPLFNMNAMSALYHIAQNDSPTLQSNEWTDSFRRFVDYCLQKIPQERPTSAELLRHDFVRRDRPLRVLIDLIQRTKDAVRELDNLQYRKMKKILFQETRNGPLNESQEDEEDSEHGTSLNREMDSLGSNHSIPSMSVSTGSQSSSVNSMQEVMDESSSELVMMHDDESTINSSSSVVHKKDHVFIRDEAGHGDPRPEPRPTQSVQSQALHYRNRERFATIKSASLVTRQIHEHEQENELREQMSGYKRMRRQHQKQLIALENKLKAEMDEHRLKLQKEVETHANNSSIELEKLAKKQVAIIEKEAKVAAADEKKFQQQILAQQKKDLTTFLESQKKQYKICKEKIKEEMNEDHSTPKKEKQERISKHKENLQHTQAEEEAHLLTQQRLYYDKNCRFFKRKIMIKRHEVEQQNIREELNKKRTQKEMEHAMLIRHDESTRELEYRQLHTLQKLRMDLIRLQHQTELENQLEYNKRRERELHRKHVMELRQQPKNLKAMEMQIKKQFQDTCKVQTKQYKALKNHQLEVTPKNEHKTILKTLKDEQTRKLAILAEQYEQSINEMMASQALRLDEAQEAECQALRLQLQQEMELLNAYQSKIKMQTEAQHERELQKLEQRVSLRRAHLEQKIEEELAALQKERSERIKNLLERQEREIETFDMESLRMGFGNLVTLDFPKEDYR

[29] = molecular target: NT-3 growth factor receptor (Homo sapiens) (UniProt Q16288); settings: Compound concentration 1000.0 nM
[30] = molecular target: Serine/threonine-protein kinase 32A (Homo sapiens) (UniProt Q8WU08); settings: Compound concentration 1000.0 nM
[31] = molecular target: Serine/threonine-protein kinase 32B (Homo sapiens) (UniProt Q9NY57); settings: Compound concentration 1000.0 nM
[32] = molecular target: Mitogen-activated protein kinase kinase kinase 19 (Homo sapiens) (UniProt Q56UN5); settings: Compound concentration 1000.0 nM
[33] = molecular target: Mitogen-activated protein kinase kinase kinase 20 (Homo sapiens) (UniProt Q9NYL2); settings: Compound concentration 1000.0 nM
[34] = molecular target: D(3) dopamine receptor (Homo sapiens) (UniProt P35462); settings: Compound concentration 10.0 uM
[35] = molecular target: GABA-A receptor; anion channel (Rattus norvegicus) (UniProt O09028+P15431+P18506+P18508+P19969+P20236+P23574+P23576+P28471+P28473+P30191+P62813+P63079+P63138+Q91ZM7+Q9ES14); settings: Compound concentration 10.0 uM
[36] = molecular target: T1, Alpha-1D adrenergic receptor (Homo sapiens) (UniProt P25100); settings: Compound concentration 10.0 uM
T1 sequence (whole entry): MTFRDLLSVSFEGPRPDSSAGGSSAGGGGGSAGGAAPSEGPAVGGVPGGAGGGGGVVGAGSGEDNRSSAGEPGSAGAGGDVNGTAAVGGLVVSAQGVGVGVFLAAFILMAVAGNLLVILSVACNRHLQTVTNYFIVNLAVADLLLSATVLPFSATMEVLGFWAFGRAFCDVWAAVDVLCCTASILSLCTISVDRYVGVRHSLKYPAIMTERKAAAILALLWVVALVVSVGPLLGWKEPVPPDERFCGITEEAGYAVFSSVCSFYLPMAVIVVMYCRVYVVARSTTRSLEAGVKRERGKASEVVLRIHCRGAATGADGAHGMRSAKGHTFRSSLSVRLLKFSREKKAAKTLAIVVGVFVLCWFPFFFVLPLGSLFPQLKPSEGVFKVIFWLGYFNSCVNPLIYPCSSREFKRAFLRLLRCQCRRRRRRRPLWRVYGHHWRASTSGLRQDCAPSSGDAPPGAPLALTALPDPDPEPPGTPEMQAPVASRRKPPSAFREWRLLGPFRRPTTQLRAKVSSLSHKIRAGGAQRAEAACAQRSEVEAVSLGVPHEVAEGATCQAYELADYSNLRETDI

NS(=O)(=O)c1cc(NC(=O)C2(c3ccccc3Cl)CC2)ccc1Oc1cccc(Cl)c1 [BAY-207]
inactive: residual activity [1] 58% | residual activity [2] 80% | residual activity [3] 100% | residual activity [4] 97% | residual activity [5] 85% | residual activity [6] 84% | residual activity [7] 95% | residual activity [8] 100% | residual activity [9] 69% | residual activity [10] 84% | residual activity [11] 100% | residual activity [12] 67% | residual activity [13] 95% | residual activity [14] 77% | residual activity [15] 93% | residual activity [16] 89% | residual activity [17] 100% | residual activity [18] 68% | residual activity [19] 100% | residual activity [20] 92% | residual activity [21] 82% | residual activity [22] 90% | residual activity [23] 77% | residual activity [24] 100% | residual activity [25] 100% | residual activity [26] 99% | residual activity [27] 70% | residual activity [28] 100% | residual activity [29] 88% | residual activity [30] 90% | residual activity [31] 91% | residual activity [32] 70% | residual activity [33] 99% | inhibition [34] 10.5% | inhibition [35] 3.19% | inhibition [36] 6.88%

NS(=O)(=O)c1cc(NC(=O)Cc2ccccc2)ccc1Oc1cccc(Cl)c1 [BAY-1797]
inactive: residual activity [1] 100% | residual activity [2] 71% | residual activity [3] 83% | residual activity [4] 100% | residual activity [5] 87% | residual activity [6] 100% | residual activity [7] 100% | residual activity [8] 83% | residual activity [9] 79% | residual activity [10] 83% | residual activity [11] 82% | residual activity [12] 100% | residual activity [13] 91% | residual activity [14] 100% | residual activity [15] 100% | residual activity [16] 89% | residual activity [17] 100% | residual activity [18] 100% | residual activity [19] 91% | residual activity [20] 73% | residual activity [21] 81% | residual activity [22] 100% | residual activity [23] 78% | residual activity [24] 95% | residual activity [25] 100% | residual activity [26] 100% | residual activity [27] 66% | residual activity [28] 75% | residual activity [29] 87% | residual activity [30] 100% | residual activity [31] 100% | residual activity [32] 78% | residual activity [33] 100% | inhibition [34] 0.87% | inhibition [35] 0.73% | inhibition [36] 2.32%
